Consider three compounds from patent publication US12371432B2, “Haloallylamine compounds and application thereof” (TransThera Sciences (Nanjing), Inc., priority 2019, dated 2025).

As a reminder, the pIC50 is the IC50 on a negative log10 scale, so that one unit is a factor of ten. Read a high pIC50 as a small IC50.

The structures appear in SMILES notation. pIC50: −log10 of the molar value. Where a name gives a salt, the structure may show the parent alone. Read-outs that look alike come from different tables or passages of the source.

One series addresses T1, rhVAP-1 (Homo sapiens, UniProt Q16853).
T1 construct: purchased PeproTech
T1 sequence (Q16853 27-763 limits assumed): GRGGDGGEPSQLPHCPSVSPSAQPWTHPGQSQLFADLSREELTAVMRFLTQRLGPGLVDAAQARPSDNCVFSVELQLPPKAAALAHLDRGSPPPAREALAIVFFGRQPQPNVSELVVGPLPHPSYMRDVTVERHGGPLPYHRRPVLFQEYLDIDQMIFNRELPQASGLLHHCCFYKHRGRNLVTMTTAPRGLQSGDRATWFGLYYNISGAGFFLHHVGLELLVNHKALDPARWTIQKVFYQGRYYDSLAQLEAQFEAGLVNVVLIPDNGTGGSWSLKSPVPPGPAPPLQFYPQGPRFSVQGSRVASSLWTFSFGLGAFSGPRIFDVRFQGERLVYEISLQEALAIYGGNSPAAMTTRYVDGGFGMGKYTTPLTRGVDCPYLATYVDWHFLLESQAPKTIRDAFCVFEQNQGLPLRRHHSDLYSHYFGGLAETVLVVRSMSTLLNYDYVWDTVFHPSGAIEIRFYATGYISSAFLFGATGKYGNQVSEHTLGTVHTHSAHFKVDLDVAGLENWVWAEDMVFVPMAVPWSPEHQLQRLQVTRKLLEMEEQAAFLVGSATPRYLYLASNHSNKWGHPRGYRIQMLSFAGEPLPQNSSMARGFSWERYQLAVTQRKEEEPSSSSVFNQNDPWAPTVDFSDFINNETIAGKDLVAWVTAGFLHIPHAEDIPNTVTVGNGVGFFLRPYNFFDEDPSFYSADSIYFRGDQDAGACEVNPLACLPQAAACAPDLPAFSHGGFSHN
In words: Inhibitory activity against rhVAP-1 enzyme (Biological Example 1). The class given is biochemical. Conditions: Table 1; benzylamine substrate, Amplex Red/HRP. As to the method: 1. Inhibitory Activity of Compounds Against rhVAP-1 Enzyme
(1) Instrument, Consumable and Reagent
Multifunctional microplate reader (MD, FlexStation3), black unclear-bottom 96-well plate (Corning), and rhVAP-1 (PeproTech)
(2) Preparation of Concentration Gradient Compound Solutions
An appropriate amount of the compound to be tested was taken, dissolved in DMSO to 10 mM and then stored. Before the study, an appropriate amount of mother liquor of the 10 mM compound to be tested was diluted with DMSO, so that 1 mM solution was obtained. The solution was then gradiently diluted 3-fold with DMSO, 10 concentration gradients in total. PBS was then used to carry out 100-fold dilution, so that compound solutions of 10× series of concentrations were prepared.
(3) Preparation of Enzyme Solutions
An appropriate amount of protein diluent was added into rhVAP-1 powder, obtaining 1 mg/mL of mother liquor for storage. Before the study, PBS was used to carry out dilution to obtain enzyme solutions of 4× concentrations.
(4) Preparation of Substrate Mixtures of 2× Concentrations
An appropriate amount of benzylamine was weighed and dissolved with PBS to obtain 200 mM of benzylamine solution. The benzylamine solution was added with 2 mM of Amplex Red mother liquor and 500 U/mL of HRP mother liquor and diluted with PBS to obtain substrate mixtures of 2× concentrations.
10 μL compound solutions of different concentrations, 25 μL rhVAP-1 enzyme solutions of 4× concentrations and 15 μL of PBS were first added into a 96-well plate, shaken to be mixed uniformly and then incubated at 37° C. for 30 min. 50 μL substrate mixtures of 2× concentrations were then added into each well, and the microplate reader was immediately used to detect fluorescence intensity of each well with 565 nm exciting light and 590 nm emission light for 5 min each time, 25 min in total. […]
V: fluorescence change rate; Ft: fluorescence reading at time point t; F0: initial fluorescence reading; Time: duration t; Vcmpd: fluorescence change rate of tested compound; Vmax: Max hole fluorescence change rate. […]

Series [1] is described as follows: Rat blood-brain barrier evaluation. The class given is in vivo. The note with it: SD rats, intragastric 10 mg/kg; for concentrations in brain tissues (in words): over time. As to the method:
(1) Animal Administration and Sampling Method:
The study compound A1, the compound A41 and PXS-4728 were dissolved in normal saline to prepare solutions. The prepared solutions were separately administered by intragastric administration to SD rats at a dose of 10 mg/kg. […] At each time point, samples were collected from three SD rats.
On the day of the study, the animals were fixed to collect 0.15 mL of blood from the jugular vein at each set time point, and the whole blood samples were put into anticoagulation tubes containing EDTA-K2. After blood sampling was completed, heart perfusion was immediately performed for the animals, and following the heart perfusion, brain tissue samples were collected.
After the whole blood samples were centrifuged under the condition of 1,524 g for 10 min, top plasma samples were collected into sample tubes. The tissue samples were weighed, added with 20% of aqueous methanol solution at a weight-to-volume ratio of 1:5 (tissue:homogenate) and homogenized. The biological samples were stored at −40° C. to −20° C. for analysis.
(4) Sample Analysis Method:
(§1) Plasma sample: The samples to be tested were taken out of the refrigerator, naturally thawed at room temperature and then swirled for 5 min, and 20 μL of plasma sample was accurately pipetted into 1.5 mL centrifuge tubes. 100 μL of internal standard working solution (solution of 5 ng/mL verapamil and 50 ng/mL glibenclamide in acetonitrile) was added, and uniform mixing was performed. After 1 min of swirling, centrifugation was performed at 13,000 rpm for 8 min. 40 μL of supernate was accurately pipetted into a 96-well plate added with 160 μL water/well in advance. Uniform mixing was performed by swirling for 10 min, followed by LC-MS/MS assay.
as §1, with “Brain tissue” for “Plasma”, “50” for “20”, “250” for “100”, “30” for “40”, “150” for “160”
(5) Data Processing Method:
Analyst 1.6.2 from AB Sciex was used to output concentration results of tested compounds. Microsoft Excel was used to calculate parameters such as mean value, standard deviation and variation coefficient (excluding those outputted directly by Analyst 1.6.2).

Setting [2] is: rat, plasma, oral, 0.167 h, read-out: Average Plasma concentration (N=3).
Where [3] appears, read: rat, plasma, oral, 1 h, read-out: Average Plasma concentration (N=3).
The mark [4] stands for this setting: rat, plasma, oral, 6 h, read-out: Average Plasma concentration (N=3).

As to `NC/C(=C\F)Cn1cc2c(n1)CCN(C1CC1)C2=O` [Compound A1, (E)-2-(2-(aminomethyl)-3-fluoroallyl)-5-cyclopropyl-2,5,6,7-tetrahydro-4H-pyrazolo[4,3-c]pyridin-4-one], the pIC50 on rhVAP-1 is 7.42. Also, the “Average Brain tissue concentration (N=3)” value in series [1] (0.167 h) is listed as “BLOQ”. The “Mean brain tissue/plasma concentration ratio” value in series [1] (0.167 h) is recorded as 0←. Moreover, in series [1], the “concentrations in brain tissues (in words)” value was “below the limit of detection”. Also, the concentration at 1 h in series [1] (rat, brain, oral, 1 h, read-out: Average Brain tissue concentration (N=3)) amounted to 39.1 ng/g; in series [1] (setting [3]) it was 1300 ng/mL. Further, the concentration at 6 h came out at 31.3 ng/g in series [1] (rat, brain, oral, 6 h, read-out: Average Brain tissue concentration (N=3)) and 80.7 ng/mL in series [1] (setting [4]). Further, the Kp at 1 h in series [1] (rat, brain/plasma, oral, 1 h, read-out: Mean brain tissue/plasma concentration ratio) was 0.03. Besides, in series [1] (rat, brain/plasma, oral, 6 h, read-out: Mean brain tissue/plasma concentration ratio), the Kp at 6 h was 0.39. Moreover, the concentration at 0.167 h in series [1] (setting [2]) amounted to 158 ng/mL.
The compound `NC/C(=C\F)Cn1ncc2c1CCN(C1CC1)C2=O` [Compound A2 hydrochloride, (E)-1-(2-(aminomethyl)-3-fluoroallyl)-5-cyclopropyl-1,5,6,7-tetrahydro-4H-pyrazolo[4,3-c]pyridin-4-one] gave a pIC50 on rhVAP-1 of 7.14.
As for `NC/C(=C\F)Cn1cc2c(=O)n(C3CC3)ccc2n1` [Compound A41, (E)-2-(2-(aminomethyl)-3-fluoroallyl)-5-cyclopropyl-2,5-dihydro-4H-pyrazolo[4,3-c]pyridin-4-one], the “Average Brain tissue concentration (N=3)” value in series [1] (0.167 h), in series [1] (1 h) and in series [1] (6 h) was “BLOQ” in each case. Moreover, the “concentrations in brain tissues (in words)” value in series [1] is given as “below the limit of detection”. Also, in series [1] (setting [2]), the concentration at 0.167 h turned out to be 624 ng/mL. Moreover, the concentration at 1 h in series [1] (setting [3]) amounted to 1750 ng/mL. Also, the concentration at 6 h in series [1] (setting [4]) worked out at 39.7 ng/mL.
